The assay deals with Human Kidney Microsome-derived 20-HETE-producing Enzyme. The experiment in a line: Inhibitory effect against human kidney microsome-derived 20-HETE-producing enzyme. The format is biochemical. The following applies: human kidney microsomal fraction, tritium-arachidonic acid substrate, NADPH, 37° C. for 1.5 hours, pH 7.4; read-out: IC50 (50% inhibition of 20-HETE production). As to the method: Inhibitory Effect Against Human Kidney Microsome-derived 20-HETE-producing Enzyme
The compounds listed in the table above were tested for their inhibitory effect against 20-HETE production.
This test was performed as described in J. Pharmacol. Exp. Ther., vol. 268, p. 474, 1994.
A test drug solution adjusted with DMSO to 1 μM was added to 50 mM 3-morpholinopropanesulfonate (MOPS) buffer (pH 7.4) containing 5 mM magnesium chloride and 1 mM ethylenediaminetetraacetic acid disodium salt (EDTA). The resulting mixture was further supplemented with a human kidney microsomal fraction (Human Cell Culture Center, Anatomic Gift Foundation) as an enzyme source, [5,6,8,9,11,12,14,15]tritium-arachidonic acid as a substrate, and NADPH as a coenzyme, followed by reaction at 37° C. for 1.5 hours. After addition of formic acid to stop the reaction, the reaction mixture was supplemented with acetonitrile (final concentration: 50%). The level of 20-HETE production was measured by high performance liquid chromatography using an ODS column (Biosil C18, BioRad Laboratories) and a radioisotope detector. Assuming that the level of 20-HETE production in the absence of a test compound was set to 100%, the concentration required for the test compound to cause 50% inhibition of 20-HETE production was calculated (IC50 value).

Structures are written as SMILES. pIC50: −log10 of the molar value.

A word on the pIC50: it is the IC50 on a negative log10 scale, so that one unit is a factor of ten. Consider `CN(C)CC(C)(C)CCc1ccc(N/C=N/O)cc1` [Example 1, N-[4-(4-N,N-dimethylamino-3,3-dimethyl-butyl)phenyl]-N′-hydroxyformamidine], for which the pIC50 was 7.98.

For the origin of these results see patent US7288566B2, “N-hydroxyformamidine derivatives” (Taisho Pharmaceutical Co., Ltd., priority 2002, dated 2007).
